For nine molecules, viability results are on record in US11498920B2, “4-(1H-imidazol-5-yl)-1H-pyrrolo[2, 3-b] pyridines for use in the treatment of leukaemias, lymphomas and solid tumors” (MASARYKOVA UNIVERZITA, priority 2018, dated 2022).

In general, viability refers to the share of living cells, or the viability signal relative to a control.

Assay type in all cases: cell-based
Test [1] deals with primary CLL cells. As to the kind of experiment: Cytotoxicity, TMRE flow cytometry viability, primary CLL cells (Example II.1). The settings on record: Homo sapiens, CLL cell, 6 hours, TMRE positive cells normalized to control, ratio to PF670462, <1 = higher cytotoxicity than PF670462, read-out: Viability of cells, Compound of formula I (100 μM), relative to PF670462 (100 μM), CLL primary cells. In general terms: Flow cytometry measures light scatter and fluorescence of single cells or particles in a stream.

The subject of test [2] is Maver-1 cells (mantle cell lymphoma). As to the kind of experiment: Cytotoxicity, TMRE flow cytometry viability, Maver-1 cells (Example II.1). The settings on record: Homo sapiens, Maver1, 24 hours, TMRE positive cells normalized to control, ratio to PF670462, <1 = higher cytotoxicity than PF670462, read-out: Viability of cells, Compound of formula I (100 μM), relative to PF670462 (100 μM), Maver-1 cells (mantle cell lymphoma).

In test [3] the test system is BL-41. Nature of the test: Cytotoxicity on panel of cell lines, TMRE viability (Example II.2). The settings on record: Homo sapiens, 24 hours, mean, control = 1, read-out: cell viability relative to control, BL-41 (BL). As to the method:
(§1) The leukemia and lymphoma-derived cell lines [MEC-1 cell line (derived from chronic lymphocytic leukemia—CLL), Nalm-16 (acute lymphocytic leukemia—ALL), K562 (chronic myeloid leukemia—CML), HL-60 (acute myeloid leukemia—AML), Maver-1 and Mino (mantle cell lymphoma—MCL), BL-41 (Burkitt lymphoma—BL), WSU-NHL (follicular lymphoma—FL), SUDHL (diffuse large B-cell lymphoma—DLBCL)], primary CLL cells and nonmalignant control primary cells were cultured in suspension in flasks under the following conditions: RPMI 1640 medium (Hyclone) supplemented with 10% fetal bovine serum (FBS, Gibco) and 1% penicillin/streptomycin (Life Technologies), 37° C., 5% CO2 and 95% relative humidity, with optimal culture cell density 5×10^6 cells/mL in case of primary cells and 0.5-1×10^6 cells/mL in case of cell lines. The adherent cell lines [A375 (derived from malignant melanoma), MDA-MB-231 and MCF-7 (breast cancer), MIA-PA-CA and PANC1 (pancreatic cancer), PC3 (prostate cancer), OVCAR4 (ovarian cancer) and HEPG2 (hepatocellular carcinoma)] were cultured on plates under the same conditions using RPMI1640 or DMEM medium (Gibco) according to instructions provided by the distributor (DSMZ/ATCC).
(§2) The tested cell lines were incubated with inhibitors at 30 μM concentration or corresponding amount of solvent (DMSO, Sigma Aldrich) in standard culture conditions, seeded as 10^5 cells/500 μl per well in a 24-well plate. Experiments were performed in technical duplicates and 2-3 biological repetitions per cell line. Viability of cells was assessed after 24 hours.
(§3) Relative values are presented as a mean value, showing ratio to the effect of control. Relative value <1=lower viability than control condition.

Test [4] deals with MCF-7. The test is described as above. The settings on record: Homo sapiens, MCF7, 24 hours, mean, control = 1, read-out: cell viability relative to control, MCF-7 (breast cancer). The procedure:
as §1, §2, §3

Test [5] deals with MEC-1. Described as above. The settings on record: Homo sapiens, MEC1, 24 hours, mean, control = 1, read-out: cell viability relative to control, MEC-1 (CLL). As to the method: as §1, §2, §3
Test [6] has as its system Maver1. Described as above. The settings on record: Homo sapiens, 24 hours, mean, control = 1, read-out: cell viability relative to control, Maver1 (MCL). As to the method:
as §1, §2, §3

For test [7], the system named is Mino. The description is as above. The settings on record: Homo sapiens, 24 hours, mean, control = 1, read-out: cell viability relative to control, Mino (MCL). The procedure: as §1, §2, §3
In test [8] the test system is Nalm16. Described as above. The settings on record: 24 hours, mean, control = 1, read-out: cell viability relative to control, Nalm16 (ALL). The procedure:
as §1, §2, §3

Test [9] concerns SUDHL. The test is described as above. The settings on record: 24 hours, mean, control = 1, read-out: cell viability relative to control, SUDHL (DLBCL). As to the method:
as §1, §2, §3

The subject of test [10] is primary CLL. The description is as above. The settings on record: Homo sapiens, 24 hours, mean, control = 1, read-out: cell viability relative to control, primary CLL. The procedure:
as §1, §2, §3

Test [11] concerns OVCAR4. The test is described as above. The settings on record: Homo sapiens, OVCAR-4, 24 hours, mean, control = 1, read-out: cell viability relative to control, OVCAR4 (ovarian cancer). The procedure: as §1, §2, §3
The test system of test [12] is PANC1. The description is as above. The settings on record: Homo sapiens, PANC-1, 24 hours, mean, control = 1, read-out: cell viability relative to control, PANC1 (pancreatic cancer). As to the method:
as §1, §2, §3

The test system of test [13] is A375. The description is as above. The settings on record: Homo sapiens, A-375, 24 hours, mean, control = 1, read-out: cell viability relative to control, A375 (melanoma). The procedure:
as §1, §2, §3

Test [14] deals with WSU-NHL. The description is as above. The settings on record: Homo sapiens, 24 hours, mean, control = 1, read-out: cell viability relative to control, WSU-NHL (FL). As to the method: as §1, §2, §3
Test [15] concerns HEPG2. The test is described as above. The settings on record: Homo sapiens, 24 hours, mean, control = 1, read-out: cell viability relative to control, HEPG2 (hepatocellular carcinoma). As to the method: as §1, §2, §3
The test system of test [16] is HL60. The test is described as above. The settings on record: Homo sapiens, HL-60, 24 hours, mean, control = 1, read-out: cell viability relative to control, HL60 (AML). As to the method: as §1, §2, §3
In test [17] the test system is MDA-MB-231. Described as above. The settings on record: Homo sapiens, 24 hours, mean, control = 1, read-out: cell viability relative to control, MDA-MB-231 (breast cancer). As to the method: as §1, §2, §3
Test [18] concerns MIA-PA-CA. Described as above. The settings on record: Homo sapiens, MIA PaCa-2, 24 hours, mean, control = 1, read-out: cell viability relative to control, MIA-PA-CA (pancreatic cancer). The procedure: as §1, §2, §3
In test [19] the test system is PC3. Described as above. The settings on record: Homo sapiens, PC-3, 24 hours, mean, control = 1, read-out: cell viability relative to control, PC3 (prostate cancer). The procedure: as §1, §2, §3

`Fc1ccc(-c2ncn(Cc3ccoc3)c2-c2ccnc3[nH]ccc23)cc1` [Preparative Example 23]: the figures for the viability at 100 µM in test [1] and in test [2] were 37% and 46%, respectively. For the same molecule, the viability at 30 µM in [3] is 57%; in [4], 31%; in test [5], 84%; in test [6], 71%; in [7], 65%; in test [8], 20%. The viability at 30 µM in test [9] was 67%; in test [10], 68%.

Turning to `COCCCn1cnc(-c2ccc(F)cc2)c1-c1ccnc2[nH]ccc12` [Preparative Example 24, 4-(4-(4-fluorophenyl)-1-(3-methoxypropyl)-1H-imidazol-5-yl)-1H-pyrrolo[2,3-b]pyridine], the viability at 100 µM in [1] was determined as 30%. The viability at 30 µM was 76% in test [3]; 72% in test [6]; 80% in [7]; 75% in test [8]; 85% in [10].

With `Fc1ccc(-c2ncn(C3CCNCC3)c2-c2ccnc3[nH]ccc23)cc1` [Preparative Example 37, 4-(4-(4-fluorophenyl)-1-(piperidin-4-yl)-1H-imidazol-5-yl)-1H-pyrrolo[2,3-b]pyridine], the viability at 100 µM in test [1] stood at 51%. Also, the viability at 30 µM in test [3] turned out to be 75%; in test [8] it was 50%; in [11], 82%; in test [12], 67%; in test [9] it was 89%; in test [10], 39%.

For `Fc1ccc(-c2ncn(-c3ccccc3)c2-c2ccnc3[nH]ccc23)cc1` [Preparative Example 47], the viability at 100 µM in test [1] was 78%. The viability at 30 µM in test [3] was 73%; in test [8], 57%; in [11], 76%; in [12], 83%; in test [10] it was 81%.

Turning to `c1cc(-c2c(C3CCCCC3)ncn2C2CCCCC2)c2cc[nH]c2n1` [Preparative Example 67, 4-(1,4-dicyclohexyl-1H-imidazol-5-yl)-1H-pyrrolo[2,3-b]pyridine], the viability at 100 µM in test [1] came out at 66%; in [2], 71%. The viability at 30 µM turned out to be 55% in test [13]; 76% in test [3]; 73% in test [6]; 72% in test [7]; 40% in [8]; 84% in test [14].

`CS(=O)(=O)N[C@H]1CC[C@@H](n2cnc(-c3ccc(F)cc3)c2-c2ccnc3[nH]ccc23)CC1` [Preparative Example 74, N-(cis-4-(4-(4-fluorophenyl)-5-(1H-pyrrolo[2,3-b]pyridin-4-yl)-1H-imidazol-1-yl)cyclohexyl)methanesulfonamide]: the viability at 100 µM in test [1] came to 73%; in [2], 46%. Also, the results for the viability at 30 µM in [4], in test [6] and in [8] were 72%, 84% and 78%, respectively.

For `C=CS(=O)(=O)N[C@H]1CC[C@@H](n2cnc(-c3ccc(F)cc3)c2-c2ccnc3[nH]ccc23)CC1` [Preparative Example 97], the viability at 100 µM in test [1] amounted to 18%; in [2] it was 1%. Besides, the viability at 30 µM was 17% in test [13]; 11% in [3]; 39% in test [15]; 68% in test [16]; 28% in test [4]; 53% in test [17]. Besides, the viability at 30 µM in test [5] amounted to 1%; in test [18] it was 23%; in test [6], 1%; in [7] it was 0%; in [11], 78%; in test [12], 50%. The viability at 30 µM in test [19] amounted to 74%; in test [9] it was 68%; in test [14], 2%; in [10] it was 51%.

Take `Fc1ccc(-c2ncn(C3CCCCC3)c2-c2c(F)cnc3[nH]ccc23)cc1` [Preparative Example 147, 4-(1-cyclohexyl-4-(4-fluorophenyl)-1H-imidazol-5-yl)-5-fluoro-1H-pyrrolo[2,3-b]pyridine]: the viability at 100 µM in test [1] was found to be 8%; in [2] it was 3%. Besides, the viability at 30 µM in [13] amounted to 85%; in test [3], 21%; in test [15] it was 41%; in test [16], 84%; in test [4] it was 41%; in test [5], 38%. Also, the viability at 30 µM came to 45% in [18]; 0% in test [6]; 1% in test [7]; 69% in test [11]; 67% in test [12]; 57% in test [19]. Moreover, the results for the viability at 30 µM in [9], in test [14] and in test [10] were 1%, 38% and 37%, respectively.

As to `Fc1ccc(-c2ncn(C3CCCCC3)c2-c2ccnc3[nH]cc(F)c23)cc1` [Preparative Example 149, 4-(1-cyclohexyl-4-(4-fluorophenyl)-1H-imidazol-5-yl)-3-fluoro-1H-pyrrolo[2,3-b]pyridine], the viability at 100 µM in [1] worked out at 11%; in test [2], 0%. Further, the viability at 30 µM in test [3] was 22%; in [15], 77%; in [16], 79%; in test [4] it was 65%; in [5], 33%; in test [18] it was 87%. Moreover, the viability at 30 µM in [6] was 1%; in test [7], 1%; in [19] it was 86%; in test [9], 21%; in test [14], 26%; in test [10], 68%.
